We go through 16 compounds from patent US10329307B2, “Heterocyclic compounds as inhibitors of platelet aggregation” (UNIVERSITE DE MONTREAL, priority 2015, dated 2019).

For this test, the target named is PAR4 (Homo sapiens (Human), UniProt Q96RI0). The test is described as follows: FLIPR assay in PAR4-expressing HEK293 cells (PAR4 antagonist activity). Format: cell-based. Conditions: H-Ala-Phe(4-F)-Pro-Gly-Trp-Leu-Val-Lys-Asn-Gly-NH2-induced intracellular calcium mobilization, 11-point curves. From the text:
The FLIPR assay is an exemplary in vitro assay for measuring the activity of the PAR4 antagonists of the present invention. In this assay, intracellular calcium mobilization is induced in PAR4 expressing cells by a PAR4 agonist and calcium mobilization is monitored. See, e.g., Example A.
HEK293 cells stably expressing PAR4 were generated by a standard method of transfection of human […] cDNA expression vector or by RAGE technology from Athersys Inc. (Cleveland, Ohio) and selected based on PAR4 protein expression of mRNA expression. […] These cells express endogenous PAR1 and can elicit calcium signal upon stimulation with PAR1 agonist peptide. Cells were grown in Dulbecco's Modified Eagle's Medium (DMEM) (Invitrogen, Carlsbad, Calif.), 10% FBS, 1% PSG, 3 μg/ml puromycin and 25 nM Methotrexate) at 37° C. with 5% CO2.
FLIPR-based calcium mobilization assay in HEK293 cells was used to measure PAR4 antagonism, agonism, and selectivity against PAR1. […] Counter screens for agonist activity and PAR1 antagonist activity were also performed. Briefly, PAR1/PAR4-expressing HEK293 cells were grown in DMEM (Life Technology, Grand Island, N.Y.) containing 10% heat-inactivated FBS, 1% Penicillin-Streptomycin, 10 μg/mL blasticidin, and 100 μg/mL Zeocin at 37° C. with 5% CO2. Cells were plated overnight prior to the experiment in a black 384-well Purecoat Amine clear bottom plate (Becton Dickinson Biosciences, San Jose, Calif.) at 10,000 cells/well in 30 μL growth medium and incubated in a humidified chamber at 37° C. with 5% CO2 overnight. Prior to compound addition, the cell medium was replaced with 40 μL of 1× calcium and magnesium-containing Hank's Balanced Saline Solution (HBSS) (with 20 mM HEPES) and 1:1000 diluted fluorescent calcium indicator (Codex Biosolutions, Gaithersburg, Md.). After a 30 minute incubation period at 37° C. and a further 30 minute incubation and equilibration period at room temperature, 20 μL test compound (diluted in 1×HBSS buffer) was added at various concentrations at 0.17% dimethyl sulfoxide (DMSO) final concentration. Changes in fluorescence intensity were measured using a Functional Drug Screening System (FDSS, Hamamatsu, Japan) to determine agonist activities. The cells were then incubated for 30 minutes at room temperature followed by addition of 20 μL of agonist peptide for antagonist activity measurement. […] Compound potency was derived from 11-point concentration-response curves.
As indicated above, the FLIPR assay, an in vitro assay, measures the PAR4 antagonist activity of compounds tested as described in Example A.
Background: Calcium flux is commonly read through the fluorescence of an indicator in the cells.

Chain of PAR4 (Q96RI0 18-385): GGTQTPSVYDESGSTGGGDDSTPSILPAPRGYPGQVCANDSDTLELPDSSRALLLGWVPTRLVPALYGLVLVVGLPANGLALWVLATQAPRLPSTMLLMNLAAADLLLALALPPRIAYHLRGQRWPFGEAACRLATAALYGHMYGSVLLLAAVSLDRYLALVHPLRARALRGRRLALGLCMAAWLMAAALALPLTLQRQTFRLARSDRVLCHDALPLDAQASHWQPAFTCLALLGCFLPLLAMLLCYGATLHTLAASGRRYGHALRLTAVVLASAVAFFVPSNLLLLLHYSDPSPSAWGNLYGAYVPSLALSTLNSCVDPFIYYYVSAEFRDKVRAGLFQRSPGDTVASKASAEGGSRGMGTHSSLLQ

As usually defined, the IC50 is the point on the concentration scale where inhibition reaches its midpoint. In the case of `COc1cc(OCC2CCCCN2c2ccc(Cl)cc2)c2cc(-c3cn4nc(OC)sc4n3)oc2c1` (single isomer, unassigned) [Example 56], the IC50 amounted to 0.92 µM.
With `COc1cc(OCC2CCCN(c3ccc(Cl)cn3)C2)c2cc(-c3cn4nc(OC)sc4n3)oc2c1` (single isomer, unassigned) [Example 65], the IC50 stood at 1 µM.
`COc1cc(OC[C@H]2CCCN2c2ccc(C#N)cc2)c2cc(-c3cn4nc(OC)sc4n3)oc2c1` [Example 1, (R)-4-(2-(((6-methoxy-2-(2-methoxyimidazo[2,1-b][1,3,4]thiadiazol-6-yl)benzofuran-4-yl)oxy)methyl)pyrrolidin-1-yl)benzonitrile]: the IC50 turned out to be 0.42 µM.
As for `COc1cc(OC[C@H]2CCCN2C2CCOCC2)c2cc(-c3cn4nc(OC)sc4n3)oc2c1` [Example 2, (R)-2-methoxy-6-(6-methoxy-4-((1-(tetrahydro-2H-pyran-4-yl)pyrrolidin-2-yl)methoxy)benzofuran-2-yl)imidazo[2,1-b][1,3,4]thiadiazole], the figure is 9.4 µM.
For `COc1ccc(N2CCN(C(=O)OC(C)(C)C)CC2COc2cc(OC)cc3oc(-c4cn5nc(C)ccc5n4)cc23)cc1` (stereo not shown) [Example 3, tert-butyl 3-(((6-methoxy-2-(6-methylimidazo[1,2-b]pyridazin-2-yl)benzofuran-4-yl)oxy)methyl)-4-(4-methoxyphenyl)piperazine-1-carboxylate] the value was 1.2 µM.
For `COc1ccc(N2CCNCC2COc2cc(OC)cc3oc(-c4cn5nc(C)ccc5n4)cc23)cc1` (stereo not shown) [Example 4, 2-(6-methoxy-4-((1-(4-methoxyphenyl)piperazin-2-yl)methoxy)benzofuran-2-yl)-6-methylimidazo[1,2-b]pyridazine] the value was 460 µM; for `COc1ccc(N2CCN(C(=O)c3ccccc3)CC2COc2cc(OC)cc3oc(-c4cn5nc(C)ccc5n4)cc23)cc1` (stereo not shown) [Example 5, (3-(((6-methoxy-2-(6-methylimidazo[1,2-b]pyridazin-2-yl)benzofuran-4-yl)oxy)methyl)-4-(4-methoxyphenyl)piperazin-1-yl)(phenyl)methanone], 24 µM; for `COc1ccc(N2CCN(C(=O)C3CC3)CC2COc2cc(OC)cc3oc(-c4cn5nc(C)ccc5n4)cc23)cc1` (stereo not shown) [Example 6, cyclopropyl(3-(((6-methoxy-2-(6-methylimidazo[1,2-b]pyridazin-2-yl)benzofuran-4-yl)oxy)methyl)-4-(4-methoxyphenyl)piperazin-1-yl)methanone], 15 µM.
With `COc1ccc(N2CCN(CC3CC3)CC2COc2cc(OC)cc3oc(-c4cn5nc(C)ccc5n4)cc23)cc1` (stereo not shown) [Example 7, 2-(4-((4-(cyclopropylmethyl)-1-(4-methoxyphenyl)piperazin-2-yl)methoxy)-6-methoxybenzofuran-2-yl)-6-methylimidazo[1,2-b]pyridazine], the IC50 worked out at 16 µM.
For `COc1cc(OCC2CCCN(S(=O)(=O)c3ccc(C)cc3)C2)c2cc(-c3cn4nc(OC)sc4n3)oc2c1` (stereo not shown) [Example 8, 2-methoxy-6-(6-methoxy-4-((1-tosylpiperidin-3-yl)methoxy)benzofuran-2-yl)imidazo[2,1-b][1,3,4]thiadiazole], the IC50 was determined as 1.4 µM.
Regarding `COc1cc(OC[C@H]2CCCN2c2ccc(Cl)cc2)c2cc(-c3cn4nc(OC)sc4n3)oc2c1` [Example 9], the half-maximal inhibitory concentration (IC50) stood at 0.95 µM.
As for `COc1ccc(N2CCC[C@@H]2COc2cc(OC)cc3oc(-c4cn5nc(OC)sc5n4)cc23)cc1` [Example 10], the figure is 0.39 µM; as for `COc1cc(OC[C@H]2CCCN2c2ccc(F)cc2)c2cc(-c3cn4nc(OC)sc4n3)oc2c1` [Example 11], 0.74 µM; as for `COc1cc(OC[C@H]2CCCN2c2ccc3c(c2)OCO3)c2cc(-c3cn4nc(OC)sc4n3)oc2c1` [Example 12], 0.42 µM.
For `CCOC(=O)c1ccc(N2CCC[C@@H]2COc2cc(OC)cc3oc(-c4cn5nc(OC)sc5n4)cc23)cc1` [Example 13], the IC50 was determined as 0.55 µM.
For `COc1cc(OC[C@H]2CCC(=O)N2c2ccc(F)cc2)c2cc(-c3cn4nc(OC)sc4n3)oc2c1` [Example 14] the value was 12 µM.
